Test results: ChEMBL document CHEMBL1126659, “5-chloro-3-(phenylsulfonyl)indole-2-carboxamide: a novel, non-nucleoside inhibitor of HIV-1 reverse transcriptase” (J Med Chem, 1993)
Where a name gives a salt, the structure may show the parent alone.

These compounds were tested on MT4 (assay: Inhibition of cell culture in MT-4 cells). Conditions: Homo sapiens, read-out: CIC95.
Type: functional

`NC(=O)c1[nH]c2ccc(Cl)cc2c1[S+]([O-])c1ccccc1` (stereo not given) and `NC(=O)c1[nH]c2ccc(Cl)cc2c1Sc1ccccc1` are the same in IC95: 200 nM for the first, 200 nM for the second.

Going from `COC(=O)c1[nH]c2ccc(Cl)cc2c1Sc1ccccc1` to `CNC(=O)c1[nH]c2ccc(Cl)cc2c1Sc1ccccc1`, the IC95 falls from 1500 nM to 200 nM (7.5-fold).

Compared with `COC(=O)c1[nH]c2ccccc2c1Sc1ccccc1`, `CNC(=O)c1[nH]c2ccccc2c1Sc1ccccc1` is lower in IC95: over 3000 nM for the first, 800 nM for the second.

First: [O-][S+](Cc1[nH]c2ccc(Cl)cc2c1Sc1ccccc1)c1ccccc1 (stereo not given)
Second: [O-][S+](Cc1[nH]c2ccccc2c1Sc1ccccc1)c1ccccc1 (stereo not given)
The IC95 of the first is 2-fold higher: 800 nM for the first, 400 nM for the second.

First: CC(C)=CCN1Cc2cc(Cl)cc3[nH]c(=S)n(c23)C[C@@H]1C
Second: CCNc1cccnc1N1CCN(C(=O)c2cc3cc(OC)ccc3[nH]2)CC1 [ATEVIRDINE MESYLATE]
The IC95 of the first is 7.5-fold lower: 400 nM for the first, 3000 nM for the second.

Going from `CN(C)C(=O)c1[nH]c2ccccc2c1Sc1ccccc1` to `NC(=O)c1[nH]c2ccc(Cl)cc2c1S(=O)(=O)c1ccccc1` [L-737126], the IC95 falls from over 3000 nM to 3 nM.

First: [O-][S+](Cc1[nH]c2ccccc2c1[S+]([O-])c1ccccc1)c1ccccc1 (stereo not given)
Second: Cc1ccnc2c1NC(=O)c1cccnc1N2C1CC1 [NEVIRAPINE]
The IC95 of the first is higher: over 3000 nM for the first, 400 nM for the second.

Work on `CCc1cc(NCc2nc3c(Cl)ccc(Cl)c3o2)c(O)nc1C` [L-697661] yielded an IC95 of 50 nM.
